{"source": "ChEMBL document CHEMBL1201862", "about": "“PubChem BioAssay data set” (2004)", "assay_in_all_cases": "growth of human tumour cells (NCI), 48 h", "key": {"A498": {"system": "A498"}, "CAKI-1": {"system": "CAKI-1"}, "CCRF-CEM": {"system": "CCRF-CEM"}, "COLO 205": {"system": "COLO 205"}, "HCT-15": {"system": "HCT-15"}, "MDA-MB-435": {"system": "MDA-MB-435"}, "NCI-H460": {"system": "NCI-H460"}, "NCI-H522": {"system": "NCI-H522"}, "RPMI-8226": {"system": "RPMI-8226"}, "SK-OV-3": {"system": "SK-OV-3"}, "SW-620": {"system": "SW-620"}, "TK-10": {"system": "TK-10"}, "U-251": {"system": "U-251"}, "UACC-257": {"system": "UACC-257"}, "UO-31": {"system": "UO-31"}, "NCI-H23": {"system": "NCI-H23"}, "786-0": {"system": "786-0"}, "A549": {"system": "A549"}, "ACHN": {"system": "ACHN"}, "DU-145": {"system": "DU-145"}, "EKVX": {"system": "EKVX"}, "HCC 2998": {"system": "HCC 2998"}, "HCT-116": {"system": "HCT-116"}, "HL-60": {"system": "HL-60"}, "HOP-62": {"system": "HOP-62"}, "HOP-92": {"system": "HOP-92"}, "HT-29": {"system": "HT-29"}, "IGROV-1": {"system": "IGROV-1"}, "K562": {"system": "K562"}, "KM12": {"system": "KM12"}, "LOX IMVI": {"system": "LOX IMVI"}, "M14": {"system": "M14"}, "MCF7": {"system": "MCF7"}, "MDA-MB-231": {"system": "MDA-MB-231"}, "MDA-N": {"system": "MDA-N"}, "MOLT-4": {"system": "MOLT-4"}, "Malme-3M": {"system": "Malme-3M"}, "NCI-H226": {"system": "NCI-H226"}, "NCI/ADR-RES": {"system": "NCI/ADR-RES"}, "OVCAR-3": {"system": "OVCAR-3"}, "OVCAR-4": {"system": "OVCAR-4"}, "OVCAR-8": {"system": "OVCAR-8"}, "PC-3": {"system": "PC-3"}, "RXF 393": {"system": "RXF 393"}, "SF-295": {"system": "SF-295"}, "SF-539": {"system": "SF-539"}, "SK-MEL-28": {"system": "SK-MEL-28"}, "SK-MEL-2": {"system": "SK-MEL-2"}, "SK-MEL-5": {"system": "SK-MEL-5"}, "SN12C": {"system": "SN12C"}, "SNB-19": {"system": "SNB-19"}, "SNB-75": {"system": "SNB-75"}, "T47D": {"system": "T47D"}, "UACC-62": {"system": "UACC-62"}}, "note": "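Exposure lasted 48 hours, with cells grown in 96-well plates and compounds tested at five concentrations. Here, GI50 denotes the concentration required for 50% inhibition of growth.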 Activity calls are given as the source filed them. No stated cut-off is given here; in the data, active = GI50 up to about 1.1 µM and inactive = higher."}
{"smiles": "COc1cc(O)c2c(=O)c(OC)c(-c3ccc(OC)c(OC)c3)oc2c1", "note": "[RETUSIN]", "values": [{"measurement": "GI50", "setting": "A498", "result": "16.1 µM (inactive)"}, {"measurement": "GI50", "setting": "CAKI-1", "result": "6.17 µM (inactive)"}, {"measurement": "GI50", "setting": "CCRF-CEM", "result": "> 100 µM (inactive)"}, {"measurement": "GI50", "setting": "COLO 205", "result": "> 100 µM (inactive)"}, {"measurement": "GI50", "setting": "HCT-15", "result": "> 100", "unit": "µM"}, {"measurement": "GI50", "setting": "MDA-MB-435", "result": "> 100 µM (inactive)"}, {"measurement": "GI50", "setting": "NCI-H460", "result": "20 µM (inactive)"}, {"measurement": "GI50", "setting": "NCI-H522", "result": "2.79 µM (inactive)"}, {"measurement": "GI50", "setting": "RPMI-8226", "result": "87.7 µM (inactive)"}, {"measurement": "GI50", "setting": "SK-OV-3", "result": "5.02 µM (inactive)"}, {"measurement": "GI50", "setting": "SW-620", "result": "> 100 µM (inactive)"}, {"measurement": "GI50", "setting": "TK-10", "result": "> 100 µM (inactive)"}, {"measurement": "GI50", "setting": "U-251", "result": "15.1 µM (inactive)"}, {"measurement": "GI50", "setting": "UACC-257", "result": "> 100 µM (inactive)"}, {"measurement": "GI50", "setting": "UO-31", "result": "> 100 µM (inactive)"}]}
{"smiles": "Nc1ccn([C@@H]2CS[C@H](CO)O2)c(=O)n1", "note": "[LAMIVUDINE]", "values": [{"measurement": "GI50", "setting": "NCI-H23", "result": "> 100 µM (inactive)"}]}
{"smiles": "O=C(Nc1cnc(O)nc1O)C(Cl)Cl", "values": [{"measurement": "GI50", "setting": "786-0", "result": "> 100 µM (inactive)"}, {"measurement": "GI50", "setting": "A498", "result": "> 100 µM (inactive)"}, {"measurement": "GI50", "setting": "A549", "result": "> 100 µM (inactive)"}, {"measurement": "GI50", "setting": "ACHN", "result": "> 100 µM (inactive)"}, {"measurement": "GI50", "setting": "CAKI-1", "result": "> 100 µM (inactive)"}, {"measurement": "GI50", "setting": "CCRF-CEM", "result": "> 100 µM (inactive)"}, {"measurement": "GI50", "setting": "COLO 205", "result": "> 100 µM (inactive)"}, {"measurement": "GI50", "setting": "DU-145", "result": "> 100 µM (inactive)"}, {"measurement": "GI50", "setting": "EKVX", "result": "> 100 µM (inactive)"}, {"measurement": "GI50", "setting": "HCC 2998", "result": "> 100 µM (inactive)"}, {"measurement": "GI50", "setting": "HCT-116", "result": "> 100 µM (inactive)"}, {"measurement": "GI50", "setting": "HCT-15", "result": "> 100", "unit": "µM"}, {"measurement": "GI50", "setting": "HL-60", "result": "> 100 µM (inactive)"}, {"measurement": "GI50", "setting": "HOP-62", "result": "> 100 µM (inactive)"}, {"measurement": "GI50", "setting": "HOP-92", "result": "> 100 µM (inactive)"}, {"measurement": "GI50", "setting": "HT-29", "result": "> 100 µM (inactive)"}, {"measurement": "GI50", "setting": "IGROV-1", "result": "> 100 µM (inactive)"}, {"measurement": "GI50", "setting": "K562", "result": "> 100 µM (inactive)"}, {"measurement": "GI50", "setting": "KM12", "result": "> 100 µM (inactive)"}, {"measurement": "GI50", "setting": "LOX IMVI", "result": "> 100 µM (inactive)"}, {"measurement": "GI50", "setting": "M14", "result": "> 100 µM (inactive)"}, {"measurement": "GI50", "setting": "MCF7", "result": "> 100 µM (inactive)"}, {"measurement": "GI50", "setting": "MDA-MB-231", "result": "> 100 µM (inactive)"}, {"measurement": "GI50", "setting": "MDA-MB-435", "result": "> 100 µM (inactive)"}, {"measurement": "GI50", "setting": "MDA-N", "result": "> 100 µM (inactive)"}, {"measurement": "GI50", "setting": "MOLT-4", "result": "> 100 µM (inactive)"}, {"measurement": "GI50", "setting": "Malme-3M", "result": "> 100 µM (inactive)"}, {"measurement": "GI50", "setting": "NCI-H226", "result": "> 100 µM (inactive)"}, {"measurement": "GI50", "setting": "NCI-H23", "result": "> 100 µM (inactive)"}, {"measurement": "GI50", "setting": "NCI-H522", "result": "> 100 µM (inactive)"}, {"measurement": "GI50", "setting": "NCI/ADR-RES", "result": "> 100 µM (inactive)"}, {"measurement": "GI50", "setting": "OVCAR-3", "result": "> 100 µM (inactive)"}, {"measurement": "GI50", "setting": "OVCAR-4", "result": "> 100 µM (inactive)"}, {"measurement": "GI50", "setting": "OVCAR-8", "result": "> 100 µM (inactive)"}, {"measurement": "GI50", "setting": "PC-3", "result": "> 100 µM (inactive)"}, {"measurement": "GI50", "setting": "RPMI-8226", "result": "> 100 µM (inactive)"}, {"measurement": "GI50", "setting": "RXF 393", "result": "> 100 µM (inactive)"}, {"measurement": "GI50", "setting": "SF-295", "result": "> 100 µM (inactive)"}, {"measurement": "GI50", "setting": "SF-539", "result": "> 100 µM (inactive)"}, {"measurement": "GI50", "setting": "SK-MEL-28", "result": "> 100 µM (inactive)"}, {"measurement": "GI50", "setting": "SK-MEL-2", "result": "> 100 µM (inactive)"}, {"measurement": "GI50", "setting": "SK-MEL-5", "result": "> 100 µM (inactive)"}, {"measurement": "GI50", "setting": "SK-OV-3", "result": "> 100 µM (inactive)"}, {"measurement": "GI50", "setting": "SN12C", "result": "> 100 µM (inactive)"}, {"measurement": "GI50", "setting": "SNB-19", "result": "> 100 µM (inactive)"}, {"measurement": "GI50", "setting": "SNB-75", "result": "> 100 µM (inactive)"}, {"measurement": "GI50", "setting": "SW-620", "result": "> 100 µM (inactive)"}, {"measurement": "GI50", "setting": "T47D", "result": "> 100 µM (inactive)"}, {"measurement": "GI50", "setting": "TK-10", "result": "> 100 µM (inactive)"}, {"measurement": "GI50", "setting": "U-251", "result": "> 100 µM (inactive)"}, {"measurement": "GI50", "setting": "UACC-257", "result": "> 100 µM (inactive)"}, {"measurement": "GI50", "setting": "UACC-62", "result": "> 100 µM (inactive)"}, {"measurement": "GI50", "setting": "UO-31", "result": "> 100 µM (inactive)"}]}
